Laboratory results as given in the supplement of paper PMC10307832.

Experiments:
Assay in all cases: relative viability (nuclei count vs DMSO), 5 days (fraction); higher = more cells survive
[1] = compound: CC1=CC=C(C=C1)C(=O)CN2C3=C(CCCC3)SC2=N [Pifithrin_alpha] + CC(=O)Nc1cccc(-n2c(=O)n(C3CC3)c(=O)c3c(Nc4ccc(I)cc4F)n(C)c(=O)c(C)c32)c1 [Trametinib] (partner 0.02 µM)
Method in brief: (§1)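 Values are medians from duplicate plates. Each reflects relative viability, defined as the nuclei count of treated wells over that of vehicle wells. Lung cancer cell lines in 1536-well plates were pin-tool dosed one day after seeding with one drug alone or with a fixed anchor-drug dose plus five library-drug doses (not always all listed) in √10 steps, then fixed, stained and imaged at 4× after 5 days.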

[2] = compound: CC1=CC=C(C=C1)C(=O)CN2C3=C(CCCC3)SC2=N [Pifithrin_alpha] + COc1cccc2cc(-c3nc([C@H]4CC[C@H](C(=O)O)CC4)n4ncnc(N)c34)[nH]c12 [OSI-027] (partner 0.5 µM)
Method in brief: as §1

Bemcentinib + Tozasertib = compound: Nc1nc(Nc2ccc3c(c2)CC[C@@H](N2CCCC2)CC3)nn1-c1cc2c(nn1)-c1ccccc1CCC2 [Bemcentinib] + Cc1cc(Nc2cc(N3CCN(C)CC3)nc(Sc3ccc(NC(=O)C4CC4)cc3)n2)n[nH]1 [Tozasertib] (partner 0.1 µM)
Method in brief: as §1

Bemcentinib + Linsitinib = compound: Nc1nc(Nc2ccc3c(c2)CC[C@@H](N2CCCC2)CC3)nn1-c1cc2c(nn1)-c1ccccc1CCC2 [Bemcentinib] + C[C@]1(O)C[C@@H](c2nc(-c3ccc4ccc(-c5ccccc5)nc4c3)c3c(N)nccn32)C1 [Linsitinib] (partner 1 µM)
Method in brief: as §1

Cell Line	relative viability ([1]; first compound 1 µM)	relative viability ([1]; first compound 3.162 µM)	relative viability ([1]; first compound 10 µM)	relative viability ([1]; first compound 31.62 µM)	relative viability ([1]; first compound 100 µM)	relative viability ([2]; first compound 1 µM)	relative viability ([2]; first compound 3.162 µM)	relative viability ([2]; first compound 10 µM)	relative viability ([2]; first compound 31.62 µM)	relative viability ([2]; first compound 100 µM)	relative viability (Bemcentinib + Tozasertib; first compound 0.04 µM)	relative viability (Bemcentinib + Tozasertib; first compound 0.1265 µM)	relative viability (Bemcentinib + Tozasertib; first compound 0.4 µM)	relative viability (Bemcentinib + Tozasertib; first compound 1.265 µM)	relative viability (Bemcentinib + Tozasertib; first compound 4 µM)	relative viability (Bemcentinib + Linsitinib; first compound 0.04 µM)	relative viability (Bemcentinib + Linsitinib; first compound 0.1265 µM)	relative viability (Bemcentinib + Linsitinib; first compound 0.4 µM)	relative viability (Bemcentinib + Linsitinib; first compound 1.265 µM)	relative viability (Bemcentinib + Linsitinib; first compound 4 µM)
201T	0.752	0.616	0.61	0.529	0.518	0.453	0.542	0.524	0.439	0.467	0.932	1.06	0.94	0.868	0.964	1.03	1.04	1.02	1.07	1.07
A549																0.655	0.657	0.659	0.677	0.622
A-427	0.682	0.727	0.688	0.6	0.552	0.398	0.416	0.445	0.445	0.601	0.192	0.192	0.197	0.213	0.201		1.14	1.07	1.14	1.14
ABC-1						0.358	0.526	0.35	0.299	0.326	0.16	0.175	0.187	0.193	0.162	0.785	0.811	0.881	0.801	0.682
BEN	1.13	0.993	1.12	1.14	1.29	0.294	0.278	0.306	0.286	0.266	0.464	0.446	0.569	0.579	0.461	0.915	1.09	0.986	0.886	0.907
CAL-12T	0.295	0.331	0.274		0.268	0.455	0.592	0.457		0.444	0.302	0.368	0.307	0.286	0.329	0.865	0.821	0.927	0.823	0.863
COR-L23	0.517	0.709	0.638		0.539	0.843	0.822	0.616		0.613	0.232	0.167	0.225	0.211	0.183	1.04	0.935	1.2	1.17	0.844
COR-L 105	0.259	0.424	0.432	0.421	0.454	0.6	0.667	0.591	0.64	0.495	0.306	0.358	0.317	0.336	0.345	0.975	0.943	1.15	1.02	0.871
Calu-6																0.946	1.05	1.04	0.983	0.944
ChaGo-K-1	0.889	0.936	0.889	0.589	0.862	0.374	0.479	0.53	0.321	0.482	0.217	0.254	0.213	0.229	0.221					
EBC-1																0.926	0.928	0.907	1.19	1.18
EKVX	0.394	0.532	0.269	0.28	0.21	0.668		0.569	0.734	0.604	0.39	0.468	0.39	0.437	0.374	1.06	1.19	1.15	1.26	1.15
EMC-BAC-2		0.89		0.706	0.794	0.329	0.386	0.358		0.353	0.264	0.281	0.285	0.305	0.301	0.816	0.845	0.879	0.889	0.871
EPLC-272H		0.282	0.281	0.284	0.268	0.227	0.307	0.245	0.244	0.256	0.281	0.207	0.249	0.252	0.261		1.08	1.28	1.16	1.19
H3255	0.578	0.831	0.546	0.421	0.442	0.552	0.608	0.504	0.521	0.572	0.566	0.678	0.619	0.782	0.655	0.89	1.22	1.04	1.02	0.888
HARA	0.557	0.695	0.836	0.493	0.45		0.482	0.58		0.441	0.12	0.139	0.106	0.102	0.102	1.01	1.07	1.01	0.994	1.05
HCC-15	0.373	0.33	0.348	0.315	0.256	0.503	0.61	0.611	0.376	0.485	0.381	0.488	0.401	0.365	0.392	0.828	0.983	0.923	0.904	0.93
HCC-44	0.945	0.846	0.727	0.786	0.747	0.39	0.391	0.481	0.324	0.268	0.913	1.46	0.872	0.956	0.888	0.702	0.74	0.736	0.714	0.771
HCC-78		0.774	0.71	0.541	0.598	0.349	0.388	0.34	0.326	0.349	0.43	0.445	0.421		0.355	0.572	0.56	0.49	0.634	0.806
HCC-366	0.249	0.248	0.238		0.187	0.787	0.605	0.538		0.48	0.125	0.101	0.119	0.149	0.11	0.612	0.921	1.14	0.604	0.881

Cell Line	relative viability ([1]; first compound 1 µM)	relative viability ([1]; first compound 3.162 µM)	relative viability ([1]; first compound 10 µM)	relative viability ([1]; first compound 31.62 µM)	relative viability ([1]; first compound 100 µM)	relative viability ([2]; first compound 1 µM)	relative viability ([2]; first compound 3.162 µM)	relative viability ([2]; first compound 10 µM)	relative viability ([2]; first compound 31.62 µM)	relative viability ([2]; first compound 100 µM)	relative viability (Bemcentinib + Tozasertib; first compound 0.04 µM)	relative viability (Bemcentinib + Tozasertib; first compound 0.1265 µM)	relative viability (Bemcentinib + Tozasertib; first compound 0.4 µM)	relative viability (Bemcentinib + Tozasertib; first compound 1.265 µM)	relative viability (Bemcentinib + Tozasertib; first compound 4 µM)	relative viability (Bemcentinib + Linsitinib; first compound 0.04 µM)	relative viability (Bemcentinib + Linsitinib; first compound 0.1265 µM)	relative viability (Bemcentinib + Linsitinib; first compound 0.4 µM)	relative viability (Bemcentinib + Linsitinib; first compound 1.265 µM)	relative viability (Bemcentinib + Linsitinib; first compound 4 µM)
HCC-827	0.558	0.562	0.576	0.498	0.573	0.807	0.912	0.823	0.713	0.774	0.474	0.458	0.421	0.408	0.417	0.952	0.992	0.936	0.947	0.988
HOP-62	0.343	0.377	0.368	0.361	0.335	0.836	0.811	0.955	0.635	0.921	0.379	0.413	0.35	0.39	0.387	1.12	0.986		1.08	0.99
IA-LM																0.661	0.962	0.654	0.697	0.713
LC-2-ad	0.973	0.945	0.912	0.757	0.811		0.84	0.797		0.675	0.451	0.478	0.451	0.486	0.442	0.831	0.851	0.835	0.888	0.894
LCLC-97TM1		0.167	0.191		0.18	0.706	0.689	0.631	0.252	0.6	0.214	0.214	0.22	0.246	0.186	0.183	0.216		0.204	0.196
LCLC-103H	0.681	0.597	0.646	0.623	0.702	0.521	0.504	0.437	0.411	0.531	0.442	0.484	0.539	0.478	0.474	1.17	1.09	1.11	1.27	1.22
LK-2	0.811	0.856	0.684	0.601	0.687	0.192	0.213	0.185	0.17	0.169	0.166	0.164	0.19	0.178	0.168	0.836	0.57	0.677	0.551	1.05
LOU-NH91	0.746	0.72	0.731	0.612	0.568	0.592	0.692	0.703	0.655	0.595	0.651	0.639	0.635	0.709	0.63	0.942	0.895	0.959	0.943	0.956
LU99A	0.458	0.601	0.573		0.575	0.266	0.27	0.273	0.23	0.281	0.263	0.31	0.248	0.264	0.258	0.524	0.555	0.56	0.499	0.562
NCI-H522	0.61	0.754	0.743	0.693	0.618	0.439	0.624	0.668	0.761	0.777	0.561	0.598	0.638	0.62	0.538					
NCI-H1299																1.01	1.04	0.985	1.07	1.09
NCI-H1563						0.776	0.81	0.76	0.704	0.716						1.24	1.15	1.21	1.15	1.19
NCI-H1623						0.401	0.5	0.38	0.331	0.324	0.427	0.438	0.455	0.461	0.442					
NCI-H1648	0.487	0.332	0.453	0.48	0.422	0.226	0.277	0.234	0.235	0.252	0.571	0.424	0.584	0.391	0.49					
NCI-H1650	0.563	0.523	0.451	0.375	0.39		0.532	0.43	0.494	0.411	0.386	0.382	0.44	0.288	0.373					
NCI-H1703																0.675	0.776	0.798	0.638	0.746
NCI-H1792	0.498	0.389	0.432		0.316		0.668	0.538	0.391	0.458						0.539	0.441	0.676	0.645	0.556
NCI-H2170	0.994	0.987	0.836	0.794	0.903	0.729	0.673	0.7	0.556	0.558	0.73	0.764	0.763	0.658	0.644					
NCI-H2342	0.856	0.734	0.811	0.772	0.843	0.517	0.667	0.551	0.604	0.573	0.574	0.429	0.492	0.464	0.516					
SW 900	0.698	0.801	0.636	0.57	0.723	0.399	0.648	0.502	0.342	0.357	0.458	0.807	0.54	0.611	0.529					
